Earlier results in publication PMC2637266, “Quantification of gamma-secretase modulation differentiates inhibitor compound selectivity between two substrates Notch and amyloid precursor protein” (Molecular Brain, 2008).

Assays:
plasma Aβ40 = tested on: plasma Aβ40; set-up: method as in PMID 18090456, PMID 16505324, PMID 18695053; conditions: AD patients; cited from earlier work
[1] = tested on: γ-secretase substrates APP, ErbB-4, and Notch; set-up: method as in PMID 12777371; conditions: cited from earlier work

Row | SMILES | plasma Aβ40 (plasma Aβ40) | tolerability (plasma Aβ40) | generation of intracellular domains (ICDs) of APP, ErbB-4, and Notch [1] | cleavage of γ-secretase substrates at the middle of transmembrane domain [1]
1 | CC(C)[C@H](O)C(=O)N[C@@H](C)C(=O)N[C@@H]1C(=O)N(C)CCc2ccccc21.O.O [LY450139 dihydrate] | reduces plasma Aβ40 | well tolerated |  | 
2 | CC(C)Cc1ccc(C(C)C(=O)O)cc1 (stereo not shown) [ibuprofen] |  |  | without affecting the generation | 
3 | COc1ccc2c(c1)c(CC(=O)O)c(C)n2C(=O)c1ccc(Cl)cc1 [indomethacin] |  |  | without affecting the generation | specifically block the cleavage
4 | CSc1ccc(/C=C2/C(C)=C(CC(=O)O)c3cc(F)ccc32)cc1 [sulindac sulphide] |  |  | without affecting the generation | specifically block the cleavage
